Patent publication US20240148821A1, “PHARMACEUTICAL USE OF CYCLIC PEPTIDE COMPOUND” (CHUGAI SEIYAKU KABUSHIKI KAISHA, priority 2021, published 2024)
Bridge positions count the residues as written; N and C are the ends. Square brackets hold non-standard residues; d marks the D form. Peptide text beside a SMILES is read from it. * marks the point of attachment. hPhe(3-Cl-4-CF3) = N[C@@H](CCc1ccc(C(F)(F)F)c(Cl)c1)C(=O)O; hPhe(3-F,4-CF3) = N[C@@H](CCc1ccc(C(F)(F)F)c(F)c1)C(=O)O; hPhe(4-CF3) = N[C@@H](CCc1ccc(C(F)(F)F)cc1)C(=O)O; NMePhe(4-Me) = CN[C@@H](Cc1ccc(C)cc1)C(=O)O; NMeNle(6-CHF2) = CN[C@@H](CCCCC(F)F)C(=O)O; NMeGly(cPent) = CN[C@H](C(=O)O)C1CCCC1; NMeCha = CN[C@@H](CC1CCCCC1)C(=O)O; NMeAllylGly = C=CC[C@H](NC)C(=O)O; NMeChg = CN[C@H](C(=O)O)C1CCCCC1; NMeD = CN[C@@H](CC(=O)O)C(=O)O; CH2CONHtBu = CC(C)(C)NC(=O)C*; NMeL = CN[C@@H](CC(C)C)C(=O)O; Chg = N[C@H](C(=O)O)C1CCCCC1; NMeV = CN[C@H](C(=O)O)C(C)C; d(β3hA) = C[C@@H](N)CC(=O)O; NMeAbu = CC[C@H](NC)C(=O)O; NMeS = CN[C@@H](CO)C(=O)O; NMeA = CN[C@@H](C)C(=O)O; Nle = CCCC[C@H](N)C(=O)O; Piperidide = C1CCN(*)CC1; Pyrrolidide = C1CCN(*)C1; dNMeA = CN[C@H](C)C(=O)O; Ac5c = NC1(C(=O)O)CCCC1; Aze = O=C(O)[C@@H]1CCN1; Abu = CC[C@H](N)C(=O)O; Ac4c = NC1(C(=O)O)CCC1; CH2CMe2OH = CC(C)(O)C*; Aib = CC(C)(N)C(=O)O; Isopentyl = CC(C)CC*; NEtG = CCNCC(=O)O; Sar = CNCC(=O)O

tested on: Human pancreatic cancer cell line AsPC-1 (G12D mutation Kras); experiment: AsPC-1 cell growth inhibition (AsPC-1 CGI); format: cell-based; conditions: read-out: AsPC-1 cell growth inhibition, 50% growth inhibitory concentration (IC50 value); 96 hours, CellTiter-Glo, values classified in ranges
Method: Test compounds were serially dilated with dimethyl sulfoxide, and 200 nL was then dispensed to a U-bottom 96-well plate using Labcyte Echo. […] The cell suspension was dispensed to a. plate containing a test compound at 100 μL per well and incubated at 37° C. in a 5% carbon dioxide gas incubator. 96 hours later, 80 μL of CellTiter-Glo (Promega) was added to each well and fluorescence was measured.

Row | Compound | IC50 [nM]
1 | C=CC[C@H]1C(=O)NC2(CCCC2)C(=O)N(C)[C@@H](C2CCCCC2)C(=O)N(C)[C@H](C(=O)N2CCCCC2)CC(=O)N(C)[C@@H](CC(C)C)C(=O)N[C@@H]([C@@H](C)CC)C(=O)N(C)CC(=O)N(C)CC(=O)N(C)[C@@H](CC2CCCCC2)C(=O)N(C)CC(=O)N[C@@H](CCc2ccc(C(F)(F)F)c(Cl)c2)C(=O)N1C [Compound 1449] ([NMeL]I[Sar][Sar][NMeCha][Sar][hPhe(3-Cl-4-CF3)][NMeAllylGly][Ac5c][NMeChg][NMeD]-Piperidide; lactam N-11 (inferred); C-terminus assumed) | > 500
2 | CC(C)C[C@H]1C(=O)N[C@@H](C(C)C)C(=O)N(C)CC(=O)N(C)CC(=O)N(C)[C@@H](CC2CCCCC2)C(=O)N(C)CC(=O)N[C@@H](CCc2ccc(C(F)(F)F)c(Cl)c2)C(=O)N2CCC[C@H]2C(=O)NC2(CCCC2)C(=O)N(C)[C@@H](CC(C)C)C(=O)N[C@H](C)CC(=O)N1C [Compound 1452] (cyclo([Ac5c][NMeL][d(β3hA)][NMeL]V[Sar][Sar][NMeCha][Sar][hPhe(3-Cl-4-CF3)]P)) | > 500
3 | CC(C)C[C@H]1C(=O)N[C@@H](C2CCCCC2)C(=O)N(C)CC(=O)N(C)CC(=O)N(C)[C@@H](CCCCC(F)F)C(=O)N(C)CC(=O)N[C@@H](CCc2ccc(C(F)(F)F)c(F)c2)C(=O)N(C)[C@@H](CC(C)C)C(=O)NC(C)(C)C(=O)N(C)[C@@H](CC(C)C)C(=O)N[C@H](C(=O)N2CCCC2)CC(=O)N1C [Compound 1453] ([NMeL][Chg][Sar][Sar][NMeNle(6-CHF2)][Sar][hPhe(3-F,4-CF3)][NMeL][Aib][NMeL]D-Pyrrolidide; lactam N-11) | > 500
4 | CC[C@H](C)[C@@H]1NC(=O)[C@H](CC(C)C)N(C)C(=O)C[C@@H](C(=O)N2CCCC2)NC(=O)[C@H](CC(C)C)N(C)C(=O)C(C)(C)NC(=O)[C@H](CC(C)C)N(C)C(=O)[C@H](CCc2ccc(C(F)(F)F)c(F)c2)NC(=O)CN(C)C(=O)[C@H](CCCCC(F)F)N(C)C(=O)CN(C)C(=O)CN(C)C1=O [Compound 1455] ([NMeL]I[Sar][Sar][NMeNle(6-CHF2)][Sar][hPhe(3-F,4-CF3)][NMeL][Aib][NMeL]D-Pyrrolidide; lactam N-11) | > 500
5 | CC[C@H](C)[C@@H]1NC(=O)[C@H](CC(C)C)N(C)C(=O)C[C@@H](C(=O)N2CCCCC2)N(C)C(=O)[C@H](CC(C)C)N(C)C(=O)C(C)(C)NC(=O)[C@H](CC(C)C)N(C)C(=O)[C@H](CCc2ccc(C(F)(F)F)c(F)c2)NC(=O)CN(C)C(=O)[C@H](CCCCC(F)F)N(C)C(=O)CN(C)C(=O)CN(C)C1=O [Compound 1456] ([NMeL]I[Sar][Sar][NMeNle(6-CHF2)][Sar][hPhe(3-F,4-CF3)][NMeL][Aib][NMeL][NMeD]-Piperidide; lactam N-11) | > 500
6 | CC[C@@H]1NC(=O)[C@H]([C@@H](C)CC)NC(=O)[C@H](CC(C)C)N(C)C(=O)C[C@@H](C)NC(=O)[C@H](C(C)C)N(C)C(=O)C2(CCCC2)NC(=O)[C@@H]2CCCN2C(=O)[C@H](CCc2ccc(C(F)(F)F)c(Cl)c2)NC(=O)CN(C)C(=O)[C@H](CC2CCCCC2)N(C)C(=O)CN(C)C1=O [Compound 1459] (cyclo([Abu][Sar][NMeCha][Sar][hPhe(3-Cl-4-CF3)]P[Ac5c][NMeV][d(β3hA)][NMeL]I)) | > 500
7 | CC[C@H](C)[C@@H]1NC(=O)[C@H](C)N(C)C(=O)C[C@@H](C)NC(=O)[C@H](C2CCCC2)N(C)C(=O)C2(CCCC2)NC(=O)[C@@H]2CCCN2C(=O)[C@H](CCc2ccc(C(F)(F)F)c(Cl)c2)NC(=O)[C@@H](C)N(C)C(=O)[C@H](Cc2ccc(C)cc2)N(C)C(=O)CN(C)C(=O)CN(C)C1=O [Compound 1465] (cyclo([Ac5c][NMeGly(cPent)][d(β3hA)][NMeA]I[Sar][Sar][NMePhe(4-Me)][dNMeA][hPhe(3-Cl-4-CF3)]P)) | > 500
8 | CC[C@H](C)[C@@H]1NC(=O)[C@H](CC(C)C)N(C)C(=O)C[C@@H](C)NC(=O)[C@H](CC(C)C)N(C)C(=O)C(C)(C)NC(=O)[C@H](COCC(=O)NC(C)(C)C)N(C)C(=O)[C@H](CCc2ccc(C(F)(F)F)c(Cl)c2)NC(=O)CN(C)C(=O)[C@H](COCCC(C)C)N(C)C(=O)CN(C)C(=O)CN(C)C1=O [Compound 1467] (cyclo([Aib][NMeL][d(β3hA)][NMeL]I[Sar][Sar][NMeS](Isopentyl)[Sar][hPhe(3-Cl-4-CF3)][NMeS](CH2CONHtBu))) | > 500
9 | CC[C@H](C)[C@@H]1NC(=O)[C@H](CC(C)C)N(C)C(=O)C[C@@H](C)NC(=O)[C@H](CC)N(C)C(=O)C2(CCCC2)NC(=O)[C@@H]2CCCN2C(=O)[C@H](CCc2ccc(C(F)(F)F)c(F)c2)NC(=O)CN(C)C(=O)[C@H](CC2CCCCC2)N(C)C(=O)CN(C)C(=O)CN(C)C1=O [Compound 1469] (cyclo([Ac5c][NMeAbu][d(β3hA)][NMeL]I[Sar][Sar][NMeCha][Sar][hPhe(3-F,4-CF3)]P)) | > 500
10 | CC[C@H](C)[C@@H]1NC(=O)[C@H](CC(C)C)N(C)C(=O)C[C@@H](C)NC(=O)[C@H](CC(C)C)N(C)C(=O)C(C)(C)NC(=O)[C@H](COCC(C)(C)O)N(C)C(=O)[C@H](CCc2ccc(C(F)(F)F)c(Cl)c2)NC(=O)CN(C)C(=O)[C@H](COCCC(C)C)N(C)C(=O)[C@@H]2CCN2C(=O)CN(CC)C1=O [Compound 1472] (cyclo([Aib][NMeL][d(β3hA)][NMeL]I[NEtG][Aze][NMeS](Isopentyl)[Sar][hPhe(3-Cl-4-CF3)][NMeS](CH2CMe2OH))) | > 500
11 | CC[C@H](C)[C@@H]1NC(=O)[C@H](C)N(C)C(=O)C[C@@H](C)NC(=O)[C@H](C2CCCC2)N(C)C(=O)C2(CCCC2)NC(=O)[C@@H]2CCCN2C(=O)[C@H](CCc2ccc(C(F)(F)F)c(Cl)c2)NC(=O)CN(C)C(=O)[C@H](CC2CCCCC2)N(C)C(=O)CN(C)C(=O)CN(C)C1=O [Compound 1478] (cyclo([Ac5c][NMeGly(cPent)][d(β3hA)][NMeA]I[Sar][Sar][NMeCha][Sar][hPhe(3-Cl-4-CF3)]P)) | > 500
12 | CC[C@H](C)[C@@H]1NC(=O)[C@H](CC(C)C)N(C)C(=O)C[C@@H](C(=O)N2CCCCC2)N(C)C(=O)[C@H](CC(C)C)N(C)C(=O)C(C)(C)NC(=O)[C@H](COCC(=O)NC(C)(C)C)N(C)C(=O)[C@H](CCc2ccc(C(F)(F)F)c(Cl)c2)NC(=O)CN(C)C(=O)[C@H](COCCC(C)C)N(C)C(=O)CN(C)C(=O)CN(C)C1=O [Compound 1480] ([NMeL]I[Sar][Sar][NMeS](Isopentyl)[Sar][hPhe(3-Cl-4-CF3)][NMeS](CH2CONHtBu)[Aib][NMeL][NMeD]-Piperidide; lactam N-11) | > 500
13 | CC[C@H](C)[C@@H]1NC(=O)[C@H](CC(C)C)N(C)C(=O)C[C@@H](C)NC(=O)[C@H](CC(C)C)N(C)C(=O)C(C)(C)NC(=O)[C@H](COCC(C)(C)O)N(C)C(=O)[C@H](CCc2ccc(C(F)(F)F)c(Cl)c2)NC(=O)CN(C)C(=O)[C@H](COCCC(C)C)N(C)C(=O)CN(CC)C(=O)CN(C)C1=O [Compound 1484] (cyclo([Aib][NMeL][d(β3hA)][NMeL]I[Sar][NEtG][NMeS](Isopentyl)[Sar][hPhe(3-Cl-4-CF3)][NMeS](CH2CMe2OH))) | > 500
14 | CC[C@H](C)[C@@H]1NC(=O)[C@H](CC(C)C)N(C)C(=O)C[C@@H](C(=O)N2CCCC2)NC(=O)[C@H](CC(C)C)N(C)C(=O)C2(CCCC2)NC(=O)[C@@H]2CCCN2C(=O)[C@H](CCc2ccc(C(F)(F)F)c(F)c2)NC(=O)CN(C)C(=O)[C@H](CC2CCCCC2)N(C)C(=O)CN(C)C(=O)CN(C)C1=O [Compound 1489] ([NMeL]I[Sar][Sar][NMeCha][Sar][hPhe(3-F,4-CF3)]P[Ac5c][NMeL]D-Pyrrolidide; lactam N-11) | > 500
15 | CCCC[C@@H]1NC(=O)[C@H](CC(C)C)N(C)C(=O)C[C@@H](C)NC(=O)[C@H](CC(C)C)N(C)C(=O)C2(CCCC2)NC(=O)[C@@H]2CCCN2C(=O)[C@H](CCc2ccc(C(F)(F)F)c(F)c2)NC(=O)CN(C)C(=O)[C@H](CC2CCCCC2)N(C)C(=O)CN(C)C(=O)CN(C)C1=O [Compound 1490] (cyclo([Ac5c][NMeL][d(β3hA)][NMeL][Nle][Sar][Sar][NMeCha][Sar][hPhe(3-F,4-CF3)]P)) | > 500
16 | CC(C)C[C@H]1C(=O)N[C@@H](C(C)C)C(=O)N(C)CC(=O)N(C)CC(=O)N(C)[C@@H](CC2CCCCC2)C(=O)N(C)CC(=O)N[C@@H](CCc2ccc(C(F)(F)F)c(F)c2)C(=O)N2CCC[C@H]2C(=O)NC2(CCCC2)C(=O)N(C)[C@@H](CC(C)C)C(=O)N[C@H](C)CC(=O)N1C [Compound 1493] (cyclo([Ac5c][NMeL][d(β3hA)][NMeL]V[Sar][Sar][NMeCha][Sar][hPhe(3-F,4-CF3)]P)) | > 500
17 | CC[C@H](C)[C@@H]1NC(=O)[C@H](CC(C)C)N(C)C(=O)C[C@@H](C(=O)N2CCCCC2)N(C)C(=O)[C@H](CC(C)C)N(C)C(=O)C(C)(C)NC(=O)[C@H](COCC(=O)NC(C)(C)C)N(C)C(=O)[C@H](CCc2ccc(C(F)(F)F)cc2)NC(=O)CN(C)C(=O)[C@H](COCCC(C)C)N(C)C(=O)CN(C)C(=O)CN(C)C1=O [Compound 1502] ([NMeL]I[Sar][Sar][NMeS](Isopentyl)[Sar][hPhe(4-CF3)][NMeS](CH2CONHtBu)[Aib][NMeL][NMeD]-Piperidide; lactam N-11) | > 500
18 | CC[C@H](C)[C@@H]1NC(=O)[C@H](CC(C)C)N(C)C(=O)C[C@@H](C)NC(=O)[C@H](CC(C)C)N(C)C(=O)C2(CCCC2)NC(=O)[C@@H]2CCCN2C(=O)[C@H](CCc2ccc(C(F)(F)F)c(Cl)c2)NC(=O)CN(C)C(=O)[C@H](CC2CCCCC2)N(C)C(=O)CN(C)C(=O)CN(C)C1=O [Compound 1503] (cyclo([Ac5c][NMeL][d(β3hA)][NMeL]I[Sar][Sar][NMeCha][Sar][hPhe(3-Cl-4-CF3)]P)) | > 500
19 | CC[C@H](C)[C@@H]1NC(=O)[C@H](C)N(C)C(=O)C[C@@H](C)NC(=O)[C@H](C2CCCC2)N(C)C(=O)C2(CCC2)NC(=O)[C@@H]2CCCN2C(=O)[C@H](CCc2ccc(C(F)(F)F)c(Cl)c2)NC(=O)CN(C)C(=O)[C@H](CC2CCCCC2)N(C)C(=O)CN(C)C(=O)CN(C)C1=O [Compound 1506] (cyclo([Ac4c][NMeGly(cPent)][d(β3hA)][NMeA]I[Sar][Sar][NMeCha][Sar][hPhe(3-Cl-4-CF3)]P)) | > 500
